Reference: ChEMBL document CHEMBL1140853, “The stereochemistry of N-methyl and aryl substituents determine the biological activities of 3-aryl-8-methyl-8-azabicyclo[3.2.1]oct-2,3-enes” (Bioorg Med Chem, 2009)

Legend:
[1] = organism: Homo sapiens; experiment: Selectivity for human SERT over human NET
[2] = organism: Homo sapiens; experiment: Selectivity for human SERT over human DAT

SMILES | Ratio [1] | Ratio [2]
CN1C2C=C(C3c4ccccc4-c4ccccc43)CC1CC2 (configuration not stated) | 120 | 13.6
CN1C2C=C(c3ccc4c(c3)Cc3ccccc3-4)CC1CC2 (configuration not stated) | 232 | 52.2
CN1C2C=C(c3cccc4ccccc34)CC1CC2 (configuration not stated) | 94.4 | 11.6
CN1C2C=C(c3ccccc3-c3ccccc3)CC1CC2 (configuration not stated) | 3.8 | 5.4
CN1C2C=C(c3cccc(-c4ccccc4)c3)CC1CC2 (configuration not stated) | 34 | 10.8
CN1C2C=C(c3c[nH]c4ccccc34)CC1CC2 (configuration not stated) | 54 | 8.3
